Results on 10 compounds are retold here after patent US8697742B2, “BCRP/ABCG2 inhibitor” (Kabushiki Kaisha Yakult Honsha, priority 2005, dated 2014).

In brackets after ≈: the same amount, converted by molar mass. Counter-ions that a name gives are not always drawn. Like-named read-outs stand apart in the source and are kept apart here.

Test [1] deals with P388/BCRP cells. The test is described as follows: Effect of overcoming SN-38 resistance of human BCRP gene-transduced P388 cells. To be noted: with SN-38, 48 hours, FIG. 1. It counts as cell-based, mouse. The procedure:
(§1) Mouse leukemia P388 cells or human BCRP gene-transduced P388 cells (P388/BCRP cells) (see JP-A-2003-063989) were suspended in 10% FBS/RPMI1640 containing 2-mercaptethanol (50 μM), and the resultant suspension was added to a 96-well microplate (1×10^4 cells/50 μL/well). Thereafter, a solution of each of Compounds 1, 14, 21, 31, 39, and 41 of the present invention and SN-38 in 100 FBS/RPNI1640 (25 μL) was added to each of the wells, followed by culturing at 5% CO2 and 37° C. for 48 hours. After completion of culturing, the number of viable cells was counted by use of TetraColor ONE according to the manufacture's instruction manual.

Test [2] relates to P388 cells. Description: Sensitivity of parental P388 cells to SN-38. It counts as cell-based, mouse. Particulars: with SN-38, 48 hours, FIG. 1. The procedure: as §1
Test [3] has as its system A549/SN-38-4 cells. The test is described as follows: Effect of overcoming SN-38 resistance of BCRP-expressing A549/SN-38-4 cells. It counts as cell-based, human. To be noted: concentration for 50% reduction of relative SN-38 resistance value (IC50 A549/SN-38-4 / IC50 A549), 48 hours culture with SN-38; for EC50: Homo sapiens, A549, 48 h, read-out: Effect of overcoming resistance EC50; for Effect of overcoming resistance EC50: hydrochloride. In short, it runs like this:
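A549/SN-38-4 cells and parental A549 cells were seeded at 2×10^3 per well in Ham's F-12 with 10% FBS and precultured overnight at 37 °C. Viable cells were counted colorimetrically with TetraColor ONE after drug culture. A relative resistance value was derived.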

In test [4] the test system is K562/MDR cells. The test is described as follows: Effect on paclitaxel (multidrug) resistance of human MDR1 gene-transduced K562 cells. To be noted: Homo sapiens, read-out: Effect of overcoming resistance EC50. It counts as cell-based. The text has this:
After completion of culturing, the number of viable cells was counted by use of TetraColor ONE according to the manufacture's instruction manual.

In test [5] the test system is HCT116/BCRP cells. The test is described as follows: Effect of overcoming anticancer agent resistance in vivo, HCT116/BCRP tumour in nude mice. To be noted: day 21; for Tumor weight Mean ± S.D.: BALB/c nude mice; for Tumor growth inhibition ratio IR: vs control group. Details: species or system human. The text has this: (§2) A solvent was solely administered to a control group. On the day 21 from the start of administration, a tumor was extirpated from each mice and weighed, and the tumor growth inhibition ratio IR (%) was derived from the following equation: Tumor growth inhibition ratio IR(%)=(1−average tumor weight of each administration group/average tumor weight of control group)×100.

In test [6] the test system is K562 cells. Description: Intracellular accumulation of SN-38 in parental K562 cells. To be noted: compound 500 ng/mL, 37° C. for 30 minutes, FIG. 2. The test is classed as cell-based, human. The procedure:
(§3) K562 cells or human BCRP gene-transduced K562 cells (K562/BCRP cells) (see JP-A-2003-063989) were suspended in 10% FBS/RPMI1640 (1 mL) (5×10^6 cells/mL), and SN-38 and each of Compounds 1, 39, and 46 of the present invention (final concentration: 500 ng/mL) were added to the resultant suspension, followed by incubation at 37° C. for 30 minutes. Thereafter, centrifugation was performed (2° C., 1,400×g, 1 min), and the resultant supernatant was removed. Ice-cooled PBS containing 1% BSA was added to the thus-pelletized cells, and the cells were resuspended, followed by centrifugation (2° C., 1,400×g, 1 min) for washing the cells. This washing procedure was performed again, followed by addition of PBS (250 μL) and sonication of the cells. To the resultant cell sonicate, methanol (250 μL) and 10% zinc sulfate solution (10 μL) were added, and the resultant mixture was stirred, followed by centrifugation (2° C., 12, 500×g, 5 min) and collection of the supernatant. The thus-collected supernatant was dispensed in a white 96-well microplate for fluorescence intensity measurement (200 μL/well), and then the amount of SN-38 contained in the supernatant was measured by use of a microplate fluorometer [SPECTRA max GEMINI XS (trademark), product of Molecular Devices] […]

Test [7] has as its system K562/BCRP cells. Description: Intracellular accumulation of SN-38 in BCRP-expressing cells. The test is classed as cell-based, human. To be noted: compound 500 ng/mL, 37° C. for 30 minutes, FIG. 2. The procedure:
as §3

Test [8] has as its system HCT116 cells. The test is described as follows: In vivo tumour growth, HCT116 tumour in nude mice. Details: species or system human. To be noted: solvent + CPT-11 10 mg/kg/day i.v. for seven days (no compound); day 21; parental HCT116.
Text: as §2

[9] abbreviates: concentration for 50% reduction of relative paclitaxel resistance value, K562/MDR vs K562, 72 hours.
[10] abbreviates: compound 12.5 mg/kg/day + CPT-11 10 mg/kg/day i.v. once a day for seven days.
Where [11] appears, read: compound 25 mg/kg/day + CPT-11 10 mg/kg/day i.v. once a day for seven days.
Setting [12] is: compound 6.3 mg/kg/day + CPT-11 10 mg/kg/day i.v. once a day for seven days.

For the compound `COc1ccc(/C(C#N)=C/c2cnc[nH]2)cc1OC` [Compound 41, (Z)-2-(3,4-dimethoxy-phenyl)-3-(3H-imidazol-4-yl)-acrylonitrile], in test [1], the “Effect of overcoming the SN-38 resistance of the P388/BCRP cells” value (“Effect … of the P388/BCRP cells” for short) is listed as “potent effect of overcoming the SN-38 resistance”. Further, in test [2], the “Effect on sensitivity of the P388 cells to SN-38” value (“Effect on sensitivity” below) is given as “did not affect the sensitivity”. Also, the 50% effective concentration (EC50) was 0.28 µg/mL (≈ 1.1 µM) in test [3] and above 5 µg/mL in test [4] (setting [9]).

`COc1ccc(/C(C#N)=C/c2ccc(N3CCN(CCO)CC3)s2)cc1OC` [Compound 14, (Z)-2-(3,4-dimethoxy-phenyl)-3-{5-[4-(2-hydroxy-ethyl)-piperazin-1-yl]-thiophen-2-yl}-acrylonitrile hydrochloride]: in test [5] (setting [10]), the “Tumor weight Mean ± S.D.” value amounted to 0.79 ± 0.14 g and the “Tumor growth inhibition ratio IR” value is on record as 37.7%. Also, in test [5] (setting [11]), the “Tumor weight Mean ± S.D.” value worked out at 0.70 ± 0.10 g and the “Tumor growth inhibition ratio IR” value was 45.1%. Moreover, the “Effect of overcoming resistance EC50” value in test [3] is 0.087 µg/mL. The concentration giving a half-maximal response (EC50) in test [4] (K562, 72 h) is above 5 µg/mL.

Take `COc1ccc(/C(C#N)=C/c2ccc[nH]2)cc1OC` [Compound 39, (Z)-2-(3,4-dimethoxy-phenyl)-3-(1H-pyrrol-2-yl)-acrylonitrile]: the “Amount of accumulation of SN-38 in the K562 cells (parental cells)” value in test [6] is listed as “virtually unaffected”. In test [1], the “Effect … of the P388/BCRP cells” value was “potent effect of overcoming the SN-38 resistance”. Also, in test [7], the “Amount of accumulation of SN-38 in the K562/BCRP cells” value is “increased the amount of accumulation of SN-38”. Also, the “Effect on sensitivity” value in test [2] is given as “did not affect the sensitivity”. The concentration giving a half-maximal response (EC50) in test [3] is 0.037 µg/mL (≈ 0.146 µM); in test [4] (setting [9]), above 5 µg/mL.

Take `COc1ccc(/C=C(\C#N)c2cccnc2)cc1OC` [Compound 46, (Z)-3-(3,4-dimethoxy-phenyl)-2-pyridin-3-yl-acrylonitrile hydrochloride]: in test [5] (setting [10]), the “Tumor weight Mean ± S.D.” value was found to be 0.79 ± 0.21 g and the “Tumor growth inhibition ratio IR” value was determined as 37.7%. Moreover, in test [5] (setting [11]), the “Tumor weight Mean ± S.D.” value was 0.67 ± 0.07 g and the “Tumor growth inhibition ratio IR” value worked out at 47.7%. The “Effect of overcoming resistance EC50” value in test [3] came to 0.1 µg/mL.

For the compound `COc1ccc(/C(C#N)=C/c2ccc(N3CCN(C)CC3)s2)cc1OC` [Compound 13, (Z)-2-(3,4-dimethoxy-phenyl)-3-[5-(4-methyl-piperazin-1-yl)-thiophen-2-yl]-acrylonitrile hydrochloride], in test [5] (setting [10]), the “Tumor weight Mean ± S.D.” value worked out at 0.87 ± 0.18 g and the “Tumor growth inhibition ratio IR” value turned out to be 31.7%. Also, in test [5] (setting [11]), the “Tumor weight Mean ± S.D.” value is on record as 0.83 ± 0.08 g and the “Tumor growth inhibition ratio IR” value worked out at 35.0%. Further, the “Effect of overcoming resistance EC50” value in test [3] came to 0.033 µg/mL.

Consider `COc1ccc(/C(C#N)=C/c2ccc(-c3cccc([N+](=O)[O-])c3)o2)cc1OC` [Compound 21, (Z)-2-(3,4-dimethoxy-phenyl)-3-[5-(3-nitro-phenyl)-furan-2-yl]-acrylonitrile], for which the “Effect … of the P388/BCRP cells” value in test [1] is “potent effect of overcoming the SN-38 resistance”. Also, in test [2], the “Effect on sensitivity” value was “did not affect the sensitivity”. The EC50 is 0.02 µg/mL (≈ 0.0531 µM) in test [3] and above 5 µg/mL in test [4] (setting [9]).

For `COc1ccc(/C(C#N)=C/c2ccncc2)cc1OC` [Compound 31, (Z)-2-(3,4-dimethoxy-phenyl)-3-pyridin-4-yl-acrylonitrile hydrochloride], in test [5] (setting [10]), the “Tumor weight Mean ± S.D.” value amounted to 0.74 ± 0.06 g and the “Tumor growth inhibition ratio IR” value amounted to 46.6%. In test [5] (setting [11]), the “Tumor weight Mean ± S.D.” value came out at 0.67 ± 0.18 g and the “Tumor growth inhibition ratio IR” value came to 51.1%. For the same compound, the “Effect of overcoming resistance EC50” value in test [3] was determined as 0.037 µg/mL.

In the case of `COc1ccc(/C(C#N)=C/c2ccc([N+](=O)[O-])s2)cc1OC` [Compound 1, (Z)-2-(3,4-dimethoxy-phenyl)-3-(5-nitro-thiophen-2-yl)-acrylonitrile], the “Amount of accumulation of SN-38 in the K562 cells (parental cells)” value in test [6] is listed as “virtually unaffected”. Besides, the “Effect … of the P388/BCRP cells” value in test [1] was “potent effect of overcoming the SN-38 resistance”. Moreover, the “Amount of accumulation of SN-38 in the K562/BCRP cells” value in test [7] is given as “increased the amount of accumulation of SN-38”. In test [2], the “Effect on sensitivity” value is “did not affect the sensitivity”. Moreover, the EC50 is 0.006 µg/mL (≈ 0.019 µM) in test [3] and above 5 µg/mL in test [4] (setting [9]).

With `CCc1c2c(nc3ccc(OC(=O)N4CCC(N5CCCCC5)CC4)cc13)-c1cc3c(c(=O)n1C2)COC(=O)[C@]3(O)CC` [CPT-11, irinotecan hydrochloride], in test [8], the “Tumor weight Mean ± S.D.” value worked out at 0.37 ± 0.08 g.

In the case of `COc1ccc(/C(C#N)=C/c2ccncc2)cc1OC.CS(=O)(=O)O` [Compound 32, (Z)-2-(3,4-dimethoxy-phenyl)-3-pyridin-4-yl-acrylonitrile methanesulfonate], the “Tumor weight Mean ± S.D.” value came to 0.75 ± 0.24 g in test [5] (setting [12]) and 0.52 ± 0.11 g in test [5] (setting [10]). In addition, the “Tumor growth inhibition ratio IR” value in test [5] (setting [12]) is 40.8%; in test [5] (setting [10]), 59.0%. The figures for the EC50 in test [3] and in test [4] (setting [9]) were 0.028 µg/mL and above 5 µg/mL, respectively.
